Legend:
[1] = target: CDK2/CycE (Homo sapiens (Human), UniProt P24941); experiment: CDK2/CycE kinase assay (TR-FRET); format: biochemical; settings: Method 2
Text: 2. CDK2/CycE Kinase Assay:
CDK2/CycE—inhibitory activity of compounds of the present invention was quantified employing the CDK2/CycE TR-FRET assay as described in the following paragraphs:
Recombinant fusion proteins of GST and human CDK2 and of GST and human CycE, expressed in insect cells (Sf9) and purified by Glutathion-Sepharose affinity chromatography, were purchased from ProQinase GmbH (Freiburg, Germany). As substrate for the kinase reaction biotinylated peptide biotin-Ttds-[…]

[2] = target: CDK9/CycT1 (Homo sapiens (Human), UniProt P50750); experiment: CDK9/CycT1 kinase assay (TR-FRET); format: biochemical; settings: Method 1
Text: 1. CDK9/CycT1 Kinase Assay:
CDK9/CycT1—inhibitory activity of compounds of the present invention was quantified employing the CDK9/CycT1 TR-FRET assay as described in the following paragraphs:
Recombinant full-length His-tagged human CDK9 and CycT1, expressed in insect cells and purified by Ni-NTA affinity chromatography, were purchased from Invitrogen (Cat. No PV4131). As substrate for the kinase reaction biotinylated peptide biotin-Ttds-[…]

Sequence of CDK9/CycT1 (P50750 whole entry): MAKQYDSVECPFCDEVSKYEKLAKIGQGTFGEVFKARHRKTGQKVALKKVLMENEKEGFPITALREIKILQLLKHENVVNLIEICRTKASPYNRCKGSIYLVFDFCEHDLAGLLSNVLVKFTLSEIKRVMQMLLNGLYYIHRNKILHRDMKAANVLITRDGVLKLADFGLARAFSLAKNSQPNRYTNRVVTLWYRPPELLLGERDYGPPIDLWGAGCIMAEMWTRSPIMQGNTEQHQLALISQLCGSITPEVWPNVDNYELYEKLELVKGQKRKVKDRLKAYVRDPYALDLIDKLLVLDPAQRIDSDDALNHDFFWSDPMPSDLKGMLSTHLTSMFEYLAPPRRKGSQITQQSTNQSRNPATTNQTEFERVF
Sequence of CDK9/CycT1 (O60563 whole entry partner): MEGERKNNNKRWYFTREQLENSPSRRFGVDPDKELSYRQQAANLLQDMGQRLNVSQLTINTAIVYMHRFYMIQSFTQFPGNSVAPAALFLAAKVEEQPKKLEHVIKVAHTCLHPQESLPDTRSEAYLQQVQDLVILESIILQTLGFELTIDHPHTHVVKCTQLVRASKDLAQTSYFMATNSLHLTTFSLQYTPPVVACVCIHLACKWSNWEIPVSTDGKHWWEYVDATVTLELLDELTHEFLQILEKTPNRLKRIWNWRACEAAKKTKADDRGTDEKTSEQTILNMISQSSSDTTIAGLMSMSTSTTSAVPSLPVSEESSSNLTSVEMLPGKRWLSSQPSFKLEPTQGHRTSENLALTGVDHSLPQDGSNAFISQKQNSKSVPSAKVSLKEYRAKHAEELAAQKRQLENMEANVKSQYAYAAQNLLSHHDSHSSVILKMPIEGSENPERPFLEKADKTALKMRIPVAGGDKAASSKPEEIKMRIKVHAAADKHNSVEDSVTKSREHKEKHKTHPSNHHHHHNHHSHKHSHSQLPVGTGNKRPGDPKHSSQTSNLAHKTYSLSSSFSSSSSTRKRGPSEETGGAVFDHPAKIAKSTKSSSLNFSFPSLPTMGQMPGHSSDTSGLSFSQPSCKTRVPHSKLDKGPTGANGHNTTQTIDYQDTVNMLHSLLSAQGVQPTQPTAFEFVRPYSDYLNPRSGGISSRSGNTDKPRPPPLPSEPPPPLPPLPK

SMILES | IC50 [1] | IC50 [2]
CCOC(=O)N=S(C)(=O)Cc1cccc(Nc2ncnc(-c3ccc(Cl)cc3OC)n2)c1 (racemic) [Example 11, (rac)-Ethyl [(3-{[4-(4-chloro-2-methoxyphenyl)-1,3,5-triazin-2-yl]amino}benzyl)(methyl)oxido-λ^6-sulfanylidene]carbamate] | 5.5 µM | 0.023 µM
COc1cc(Cl)ccc1-c1ncnc(Nc2cccc(CS(C)(=N)=O)c2)n1 (racemic) [Example 12, (rac) 4-(4-Chloro-2-methoxyphenyl)-N-{3-[(S-methylsulfonimidoyl)methyl]phenyl}-1,3,5-triazin-2-amine] | 6.8 µM | 0.074 µM
CCOC(=O)N=S(C)(=O)Cc1cccc(Nc2ncnc(-c3cccc4c3OC(F)(F)O4)n2)c1 (racemic) [Example 18, (rac)-Ethyl [(3-{[4-(2,2-difluoro-1,3-benzodioxol-4-yl)-1,3,5-triazin-2-yl]amino}benzyl)(methyl)oxido-λ^6-sulfanylidene]carbamate] | 3.9 µM | 0.033 µM
COc1ccc(F)cc1-c1ncnc(Nc2cccc(CS(C)(=N)=O)c2)n1 (racemic) [Example 21, (rac)-4-(5-Fluoro-2-methoxyphenyl)-N-{3-[(S-methylsulfonimidoyl)methyl]phenyl}-1,3,5-triazin-2-amine] | 3.5 µM | 0.056 µM
COc1ccccc1-c1ncnc(Nc2cccc(CS(C)(=N)=O)c2)n1 (racemic) [Example 26, (rac)-4-(2-Methoxyphenyl)-N-{3-[(S-methylsulfonimidoyl)methyl]phenyl}-1,3,5-triazin-2-amine] | 4.6 µM | 0.035 µM
CCOC(=O)N=S(C)(=O)Cc1cccc(Nc2ncnc(-c3cccc4c3OCC4)n2)c1 (racemic) [Example 33, (rac)-Ethyl [(3-{[4-(2,3-dihydro-1-benzofuran-7-yl)-1,3,5-triazin-2-yl]amino}benzyl)(methyl)oxido-λ^6-sulfanylidene]carbamate] | 3.1 µM | 0.021 µM
CN=S(C)(=O)Cc1cccc(Nc2ncnc(-c3ccc(F)cc3OC)n2)c1 (racemic) [Example 41, (rac)-N-{3-[(N,S-Dimethylsulfonimidoyl)methyl]phenyl}-4-(4-fluoro-2-methoxyphenyl)-1,3,5-triazin-2-amine] | 2.6 µM | 0.036 µM
CCOC(=O)N=S(C)(=O)Cc1cccc(Nc2ncnc(-c3cccc(Cl)c3OC)n2)c1 (racemic) [Example 45, (rac)-Ethyl [(3-{[4-(3-chloro-2-methoxyphenyl)-1,3,5-triazin-2-yl]amino}benzyl)(methyl)oxido-λ^6-sulfanylidene]carbamate] | 9 µM | 0.82 µM
CCOC(=O)N=S(C)(=O)Cc1cccc(Nc2ncnc(-c3cc(F)ccc3OCC3CCOCC3)n2)c1 (racemic) [Example 46, (rac)-Ethyl {[3-({4-[5-fluoro-2-(tetrahydro-2H-pyran-4-ylmethoxy)phenyl]-1,3,5-triazin-2-yl}amino)benzyl](methyl)oxido-λ^6-sulfanylidene}carbamate] | 11 µM | 0.12 µM
CCOC(=O)N=S(C)(=O)Cc1cccc(Nc2ncnc(-c3ccccc3Oc3ccccc3)n2)c1 (racemic) [Example 47, (rac)-Ethyl [methyl(oxido)(3-{[4-(2-phenoxyphenyl)-1,3,5-triazin-2-yl]amino}benzyl)-λ^6-sulfanylidene]carbamate] | 6.5 µM | 0.035 µM
CS(=N)(=O)Cc1cccc(Nc2ncnc(-c3ccc(F)cc3OCCC3CCOCC3)n2)c1 (racemic) [Example 57, (rac)-4-{4-Fluoro-2-[2-(tetrahydro-2H-pyran-4-yl)ethoxy]phenyl}-N-{3-[(S-methylsulfonimidoyl)methyl]phenyl}-1,3,5-triazin-2-amine] | 8.3 µM | 0.37 µM
COc1cc(F)ccc1-c1ncnc(Nc2cccc(CS(=N)(=O)C3CCOCC3)c2)n1 (racemic) [Example 58, (rac)-4-(4-Fluoro-2-methoxyphenyl)-N-(3-{[S-(tetrahydro-2H-pyran-4-yl)sulfonimidoyl]methyl}phenyl)-1,3,5-triazin-2-amine] | 5.2 µM | 0.089 µM
CCOC(=O)N=S(C)(=O)Cc1cccc(Nc2ncnc(-c3ccccc3OCc3ccc(Cl)c(Cl)c3)n2)c1 (racemic) [Example 60, (rac)-Ethyl [{3-[(4-{2-[(3,4-dichlorobenzyl)oxy]phenyl}-1,3,5-triazin-2-yl)amino]benzyl}(methyl)oxido-λ^6-sulfanylidene]carbamate] | 3.3 µM | 0.013 µM
CC(Oc1cc(F)ccc1-c1ncnc(Nc2cccc(CS(C)(=N)=O)c2)n1)C1CCCC1 (stereo not shown) [Example 63, 4-[2-(1-cyclopentylethoxy)-4-fluorophenyl]-N-{3-[(S-methylsulfonimidoyl)methyl]phenyl}-1,3,5-triazin-2-amine] | – | 0.099 µM

Second part, the compound after the results:

IC50 [1] | IC50 [2] | SMILES
2.2 µM | – | CCOC(=O)N=S(C)(=O)Cc1cccc(Nc2ncnc(-c3ccc(F)cc3OC)n2)c1 (racemic) [Example 1, (rac)-Ethyl [(3-{[4-(4-fluoro-2-methoxyphenyl)-1,3,5-triazin-2-yl]amino}benzyl)(methyl)oxido-λ^6-sulfanylidene]carbamate]
0.22 µM | 0.003 µM | CS(=N)(=O)Cc1cccc(Nc2ncnc(-c3ccc(F)cc3OCc3ccccc3)n2)c1 (racemic) [Example 6, (rac)-4-[2-(Benzyloxy)-4-fluorophenyl]-N-{3-[(S-methylsulfonimidoyl)methyl]phenyl}-1,3,5-triazin-2-amine]
2.1 µM | 0.059 µM | CS(=N)(=O)Cc1cccc(Nc2ncnc(-c3cccc4c3OC(F)(F)O4)n2)c1 (racemic) [Example 19, (rac)-4-(2,2-Difluoro-1,3-benzodioxol-4-yl)-N-{3-[(S-methylsulfonimidoyl)methyl]phenyl}-1,3,5-triazin-2-amine]
2 µM | 0.022 µM | CCOC(=O)N=S(C)(=O)Cc1cccc(Nc2ncnc(-c3cc(F)ccc3OC)n2)c1 (racemic) [Example 20, (rac)-Ethyl [(3-{[4-(5-fluoro-2-methoxyphenyl)-1,3,5-triazin-2-yl]amino}benzyl)(methyl)oxido-λ^6-sulfanylidene]carbamate]
2.2 µM | 0.068 µM | CS(=N)(=O)Cc1cccc(Nc2ncnc(-c3cccc4c3OCC4)n2)c1 (racemic) [Example 34, (rac)-4-(2,3-Dihydro-1-benzofuran-7-yl)-N-{3-[(S-methylsulfonimidoyl)methyl]phenyl}-1,3,5-triazin-2-amine]
1.6 µM | 0.014 µM | CS(=N)(=O)Cc1cccc(Nc2ncnc(-c3cccc4c3OCCO4)n2)c1 (racemic) [Example 38, (rac)-4-(2,3-Dihydro-1,4-benzodioxin-5-yl)-N-{3-[(S-methylsulfonimidoyl)methyl]phenyl}-1,3,5-triazin-2-amine]
0.4 µM | – | COc1cc(F)ccc1-c1ncnc(Nc2cc(F)c(F)c(CS(C)(=N)=O)c2)n1 (racemic) [Example 106, (rac)-N-{3,4-Difluoro-5-[(S-methylsulfonimidoyl)methyl]phenyl}-4-(4-fluoro-2-methoxyphenyl)-1,3,5-triazin-2-amine]
0.54 µM | – | COc1cc(F)ccc1-c1ncnc(Nc2cc(F)cc(CS(C)(=N)=O)c2)n1 (single isomer, unassigned) [Example 53, 4-(4-Fluoro-2-methoxyphenyl)-N-{3-fluoro-5-[(S-methylsulfonimidoyl)methyl]phenyl}-1,3,5-triazin-2-amine]

Source: patent US9669034B2, “4-aryl-N-phenyl-1,3,5-triazin-2-amines containing a sulfoximine group” (BAYER INTELLECTUAL PROPERTY GMBH, priority 2011, dated 2017)
